Assay results as given in ChEMBL document CHEMBL1201862, “PubChem BioAssay data set” (2004).
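Five concentrations, 48 hours, 96-well plates. GI50 marks 50% less growth.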 The source made the active and inactive calls. Cut-off read from the data, not from the text of the source: active = GI50 up to about 1.1 µM and inactive = higher.

What was measured:
Test in all cases: NCI anticancer screen, dose series, 48 h
M14 = test system: M14
DMS-273 = test system: DMS-273
DMS-114 = test system: DMS-114
NCI-H460 = test system: NCI-H460
SNB-75 = test system: SNB-75
UACC-257 = test system: UACC-257
SR = test system: SR
K562 = test system: K562
ACHN = test system: ACHN
786-0 = test system: 786-0
HCC 2998 = test system: HCC 2998
COLO 205 = test system: COLO 205
HCT-116 = test system: HCT-116
TK-10 = test system: TK-10
XF498 = test system: XF498
OVCAR-5 = test system: OVCAR-5
LXFL 529 = test system: LXFL 529
SW-620 = test system: SW-620
SK-OV-3 = test system: SK-OV-3
SK-MEL-28 = test system: SK-MEL-28
HT-29 = test system: HT-29
SNB-78 = test system: SNB-78
RPMI-8226 = test system: RPMI-8226
UO-31 = test system: UO-31
NCI-H226 = test system: NCI-H226
SNB-19 = test system: SNB-19
RXF 393 = test system: RXF 393
M19-MEL = test system: M19-MEL
DLD-1 = test system: DLD-1
MOLT-4 = test system: MOLT-4
OVCAR-4 = test system: OVCAR-4
OVCAR-8 = test system: OVCAR-8
A549 = test system: A549
NCI-H522 = test system: NCI-H522
SF-295 = test system: SF-295
HL-60 = test system: HL-60
KM-20L2 = test system: KM-20L2
SK-MEL-5 = test system: SK-MEL-5
KM12 = test system: KM12
SN12C = test system: SN12C
SK-MEL-2 = test system: SK-MEL-2
Malme-3M = test system: Malme-3M
IGROV-1 = test system: IGROV-1
UACC-62 = test system: UACC-62
OVCAR-3 = test system: OVCAR-3
LOX IMVI = test system: LOX IMVI
HOP-62 = test system: HOP-62
HCT-15 = test system: HCT-15
CCRF-CEM = test system: CCRF-CEM
U-251 = test system: U-251
SF-268 = test system: SF-268
NCI-H23 = test system: NCI-H23
HOP-92 = test system: HOP-92
SF-539 = test system: SF-539
HOP-18 = test system: HOP-18
EKVX = test system: EKVX

## Cc1ccc(C(O)/C(=N/N)c2nc3ccc([N+](=O)[O-])cc3nc2O)cc1 (stereo not drawn)
M14
  GI50: > 100 µM (inactive)
DMS-273
  GI50: 83.4 µM (inactive)
DMS-114
  GI50: 33.9 µM (inactive)
NCI-H460
  GI50: > 100 µM (inactive)
SNB-75
  GI50: 43.7 µM (inactive)
UACC-257
  GI50: > 100 µM (inactive)
SR
  GI50: 58.7 µM (inactive)
K562
  GI50: 22.6 µM (inactive)
ACHN
  GI50: 47.3 µM (inactive)
786-0
  GI50: > 100 µM (inactive)
HCC 2998
  GI50: 4.66 µM (inactive)
COLO 205
  GI50: > 100 µM (inactive)
HCT-116
  GI50: > 100 µM (inactive)
TK-10
  GI50: > 100 µM (inactive)
XF498
  GI50: 95.5 µM (inactive)
OVCAR-5
  GI50: > 100 µM (inactive)
LXFL 529
  GI50: 67 µM (inactive)
SW-620
  GI50: > 100 µM (inactive)
SK-OV-3
  GI50: > 100 µM (inactive)
SK-MEL-28
  GI50: > 100 µM (inactive)
HT-29
  GI50: > 100 µM (inactive)
SNB-78
  GI50: > 100 µM (inactive)
RPMI-8226
  GI50: 40.6 µM (inactive)
UO-31
  GI50: 45.4 µM (inactive)
NCI-H226
  GI50: > 100 µM (inactive)
SNB-19
  GI50: > 100 µM (inactive)
RXF 393
  GI50: > 100 µM (inactive)
M19-MEL
  GI50: > 100 µM (inactive)
DLD-1
  GI50: > 100 µM (inactive)
MOLT-4
  GI50: > 100 µM (inactive)
OVCAR-4
  GI50: > 100 µM (inactive)
OVCAR-8
  GI50: > 100 µM (inactive)
A549
  GI50: > 100 µM (inactive)
NCI-H522
  GI50: 17.8 µM (inactive)
SF-295
  GI50: > 100 µM (inactive)
HL-60
  GI50: 27 µM (inactive)
KM-20L2
  GI50: 57.5 µM (inactive)
SK-MEL-5
  GI50: 43.2 µM (inactive)
KM12
  GI50: 51.8 µM (inactive)
SN12C
  GI50: > 100 µM (inactive)
SK-MEL-2
  GI50: > 100 µM (inactive)
Malme-3M
  GI50: > 100 µM (inactive)
IGROV-1
  GI50: > 100 µM (inactive)
UACC-62
  GI50: 46.8 µM (inactive)
OVCAR-3
  GI50: > 100 µM (inactive)
LOX IMVI
  GI50: > 100 µM (inactive)
HOP-62
  GI50: > 100 µM (inactive)
HCT-15
  GI50: 28 µM
CCRF-CEM
  GI50: 13.5 µM (inactive)
U-251
  GI50: > 100 µM (inactive)
SF-268
  GI50: 74.6 µM (inactive)
NCI-H23
  GI50: > 100 µM (inactive)
HOP-92
  GI50: > 100 µM (inactive)

## CC(C)=CCC/C(C)=C/CC/C(C)=C/Cc1c(O)c2ccccc2oc1=O
M14
  GI50: > 100 µM (inactive)
DMS-273
  GI50: > 100 µM (inactive)
DMS-114
  GI50: 83.6 µM (inactive)
NCI-H460
  GI50: > 100 µM (inactive)
SNB-75
  GI50: > 100 µM (inactive)
UACC-257
  GI50: 99.8 µM (inactive)
SR
  GI50: > 100 µM (inactive)
K562
  GI50: 80.5 µM (inactive)
ACHN
  GI50: > 100 µM (inactive)
786-0
  GI50: > 100 µM (inactive)
HCC 2998
  GI50: > 100 µM (inactive)
COLO 205
  GI50: > 100 µM (inactive)
HCT-116
  GI50: 89.1 µM (inactive)
TK-10
  GI50: > 100 µM (inactive)
SF-539
  GI50: > 100 µM (inactive)
LXFL 529
  GI50: > 100 µM (inactive)
SW-620
  GI50: > 100 µM (inactive)
SK-OV-3
  GI50: > 100 µM (inactive)
SK-MEL-28
  GI50: > 100 µM (inactive)
HT-29
  GI50: > 100 µM (inactive)
SNB-78
  GI50: > 100 µM (inactive)
HOP-18
  GI50: > 100 µM (inactive)
RPMI-8226
  GI50: 91.6 µM (inactive)
UO-31
  GI50: 48.8 µM (inactive)
NCI-H226
  GI50: 47.1 µM (inactive)
SNB-19
  GI50: > 100 µM (inactive)
RXF 393
  GI50: 99.1 µM (inactive)
M19-MEL
  GI50: > 100 µM (inactive)
DLD-1
  GI50: > 100 µM (inactive)
MOLT-4
  GI50: > 100 µM (inactive)
OVCAR-4
  GI50: > 100 µM (inactive)
OVCAR-8
  GI50: > 100 µM (inactive)
A549
  GI50: 65.6 µM (inactive)
NCI-H522
  GI50: > 100 µM (inactive)
SF-295
  GI50: > 100 µM (inactive)
HL-60
  GI50: 99.1 µM (inactive)
KM-20L2
  GI50: > 100 µM (inactive)
KM12
  GI50: > 100 µM (inactive)
SN12C
  GI50: > 100 µM (inactive)
SK-MEL-2
  GI50: > 100 µM (inactive)
Malme-3M
  GI50: > 100 µM (inactive)
IGROV-1
  GI50: > 100 µM (inactive)
UACC-62
  GI50: 63.7 µM (inactive)
OVCAR-3
  GI50: 75.5 µM (inactive)
LOX IMVI
  GI50: > 100 µM (inactive)
HOP-62
  GI50: > 100 µM (inactive)
HCT-15
  GI50: 69 µM
EKVX
  GI50: > 100 µM (inactive)
CCRF-CEM
  GI50: > 100 µM (inactive)
U-251
  GI50: 57.9 µM (inactive)
SF-268
  GI50: > 100 µM (inactive)
NCI-H23
  GI50: 55.8 µM (inactive)
HOP-92
  GI50: > 100 µM (inactive)

## CC(C)NC(=O)OCc1nnn2c1CCC2
M14
  GI50: > 100 µM (inactive)
NCI-H460
  GI50: > 100 µM (inactive)
SNB-75
  GI50: > 100 µM (inactive)
UACC-257
  GI50: > 100 µM (inactive)
SR
  GI50: > 100 µM (inactive)
K562
  GI50: > 100 µM (inactive)
ACHN
  GI50: > 100 µM (inactive)
HCC 2998
  GI50: > 100 µM (inactive)
HCT-116
  GI50: > 100 µM (inactive)
TK-10
  GI50: > 100 µM (inactive)
SF-539
  GI50: > 100 µM (inactive)
XF498
  GI50: > 100 µM (inactive)
OVCAR-5
  GI50: > 100 µM (inactive)
LXFL 529
  GI50: > 100 µM (inactive)
SW-620
  GI50: > 100 µM (inactive)
SK-OV-3
  GI50: > 100 µM (inactive)
SK-MEL-28
  GI50: > 100 µM (inactive)
HT-29
  GI50: > 100 µM (inactive)
SNB-78
  GI50: > 100 µM (inactive)
UO-31
  GI50: > 100 µM (inactive)
RXF 393
  GI50: > 100 µM (inactive)
M19-MEL
  GI50: > 100 µM (inactive)
DLD-1
  GI50: > 100 µM (inactive)
MOLT-4
  GI50: > 100 µM (inactive)
OVCAR-4
  GI50: > 100 µM (inactive)
OVCAR-8
  GI50: > 100 µM (inactive)
A549
  GI50: > 100 µM (inactive)
NCI-H522
  GI50: > 100 µM (inactive)
SF-295
  GI50: > 100 µM (inactive)
HL-60
  GI50: > 100 µM (inactive)
KM-20L2
  GI50: > 100 µM (inactive)
SK-MEL-5
  GI50: > 100 µM (inactive)
KM12
  GI50: > 100 µM (inactive)
SN12C
  GI50: > 100 µM (inactive)
SK-MEL-2
  GI50: > 100 µM (inactive)
Malme-3M
  GI50: > 100 µM (inactive)
IGROV-1
  GI50: > 100 µM (inactive)
UACC-62
  GI50: > 100 µM (inactive)
OVCAR-3
  GI50: > 100 µM (inactive)
LOX IMVI
  GI50: > 100 µM (inactive)
HOP-62
  GI50: > 100 µM (inactive)
HCT-15
  GI50: > 100 µM
EKVX
  GI50: > 100 µM (inactive)
CCRF-CEM
  GI50: > 100 µM (inactive)
U-251
  GI50: > 100 µM (inactive)
NCI-H23
  GI50: > 100 µM (inactive)
HOP-92
  GI50: 74 µM (inactive)
